Test results from publication PMC10413920, “Design, synthesis and in vitro biological studies of novel triazoles with potent and broad-spectrum antifungal activity” (Journal of Enzyme Inhibition and Medicinal Chemistry, 2023).
≈ marks a conversion by molar mass, not a printed value.

Columns and labels:
[1] = in vitro; conditions: rabbit
[2] = system: FCZ-resistant C. albicans 901; assay: MIC against FCZ-resistant strains, microdilution; assay type: cell-based, Candida albicans; conditions: FCZ-resistant isolate, 30 °C, 24 h; for MIC: Candida albicans, read-out: MIC, C.alb 901
From the text: (§1) The alarming impact of drug resistance amongst Candida spp. is an emerging problem globally. Rising rates of azole-resistant Candida spp. are associated with an increase in treatment failures. Candida auris is characterised by a high level of multi-drug resistance. It has been reported in more than 45 countries and has caused serious hospital outbreaks with crude mortality rates as high as 72%[13]^,[14].
(§2) All fungal strains used in this study were obtained from the American Type Culture Collection (ATCC) and Changhai Hospital (Shanghai, China). All strains were cultivated by shaking (200 rpm) at 30 °C in YEPD medium (1% yeast extract, 2% peptone, and 2% dextrose) to an exponential growth stage.
(§3) Fungal cells at the exponential growth stage were collected and resuspended in RPMI 1640 medium, then diluted to 1 × 10^3 cells/mL. The suspension of fungal cells was inoculated into 96-well plates. Antifungal compounds were serially added and diluted in a 2-fold series to a final concentration range of 64.0–0.125 µg/mL. RPMI 1640 medium with no fungal cells served as a blank control. […] C. albicans, C. glabrata, C. parapsilosis, C. tropicalis, and C. auris cells were incubated at 30 °C for 24 h, C. neoformans and A. fumigatus cells were incubated at 30 °C for 48 h. The optical density (OD630) at 630 nm was measured by a spectrophotometer, which was used to calculate the MIC80 values of each compound.

[3] = system: C. albicans SC5314; assay: GC-MS analysis of sterol composition; assay type: cell-based, Candida albicans; conditions: 8 µg/mL, 8 h; for ergosterol content of the fungal cells (of total sterols): control 89.85%
Protocol: As the major fungal sterol, ergosterol accounted for 89.85% of the total sterols in the control group, zymosterol accounted for 8.80%, in addition to several other sterols. […] In contrast, the content of other sterols in the bypass pathway increased.
Overnight cultured C. albicans SC5314 fungal cells were collected and diluted to 5 × 10^6 cells/mL in YEPD medium. […] The fungal cells were cultured by shaking (200 rpm) at 30 °C. After incubation for 8 h, the fungal suspension was centrifuged (3000 rpm, 1 min), harvested and washed twice with distilled water carefully. The saponifying agent (6 ml of 15% NaOH resolved in 90% ethanol) was added to the precipitate. After 1 h of saponification at 80 °C, sterols were extracted with hexane (3 × 5 ml). The combined extracts were evaporated in a water bath and washed once with water. The residue was dried in a 60 °C water bath to obtain the total sterols. Finally, the total sterol was analysed by GC-MS and the structures of each sterol content were identified and compared with the National Institute of Standards and Technology (NIST) database.

[4] = system: C. auris 918; assay: MIC against FCZ-resistant strains, microdilution; assay type: cell-based, Candida auris; conditions: Candidozyma auris, FCZ-resistant isolate, 30 °C, 24 h
From the text: as §1, §2, §3

[5] = system: C. auris 919; assay: MIC against FCZ-resistant strains, microdilution; assay type: cell-based, Candida auris; conditions: Candidozyma auris, FCZ-resistant isolate, 30 °C, 24 h
From the text: as §1, §2, §3

[6] = system: Candida tropicalis 8915; assay: Broth microdilution MIC (CLSI M27-A3/M60); assay type: cell-based; conditions: Candida tropicalis, 8915; MIC80 (≥80% growth inhibition), 30 °C, 24 h; read-out: MIC, C. tro 8915
Protocol: (§4) According to the Clinical Laboratory Standards Institute (CLSI, M27-A3 and M60) protocols[10]^,[11], the target compounds were evaluated for their in vitro antifungal activity by the broth microdilution method. The fungi strains used in this study were obtained from the American Type Culture Collection (ATCC) and Changhai Hospital (Shanghai, China). […] Fluconazole (FCZ) and ketoconazole (KCZ) were used as positive controls.
as §2
(§5) Fungal cells at the exponential growth stage were collected and resuspended in RPMI 1640 medium, then diluted to 1 × 10^3 cells/mL. The suspension of fungal cells was inoculated into 96-well plates. Antifungal compounds were serially added and diluted in a 2-fold series to a final concentration range of 64.0–0.125 µg/mL. RPMI 1640 medium with no fungal cells served as a blank control. The fungal suspensions containing DMSO and FCZ served as the negative control and the positive control, respectively. C. albicans, C. glabrata, C. parapsilosis, C. tropicalis, and C. auris cells were incubated at 30 °C for 24 h, C. neoformans and A. fumigatus cells were incubated at 30 °C for 48 h. The optical density (OD630) at 630 nm was measured by a spectrophotometer, which was used to calculate the MIC80 values of each compound.

[7] = system: Candida albicans SC5314; assay: Broth microdilution MIC (CLSI M27-A3/M60); assay type: cell-based; conditions: MIC80 (≥80% growth inhibition), 30 °C, 24 h; for MIC: Candida albicans, SC5314, read-out: MIC, C. alb SC5314
Protocol: as §4, §2, §5

[8] = system: Candida glabrata 537; assay: Broth microdilution MIC (CLSI M27-A3/M60); assay type: cell-based; conditions: MIC80 (≥80% growth inhibition), 30 °C, 24 h; for MIC: Nakaseomyces glabratus, 537, read-out: MIC, C. gla 537
Protocol: as §4, §2, §5

[9] = system: Cryptococcus neoformans 22-21; assay: Broth microdilution MIC (CLSI M27-A3/M60); assay type: cell-based; conditions: 2221, MIC80 (≥80% growth inhibition), 30 °C, 48 h, read-out: MIC, C. neo 22-21
Protocol: as §4, §2, §5

[10] = system: Candida parapsilosis 22-20; assay: Broth microdilution MIC (CLSI M27-A3/M60); assay type: cell-based; conditions: Lodderomyces parapsilosis, 2220; MIC80 (≥80% growth inhibition), 30 °C, 24 h; read-out: MIC, C. par 22-20
Protocol: as §4, §2, §5

[11] = system: Aspergillus fumigatus 7544; assay: Broth microdilution MIC (CLSI M27-A3/M60); assay type: cell-based; conditions: Aspergillus fumigatus, 7544; MIC80 (≥80% growth inhibition), 30 °C, 48 h; read-out: MIC, A. fum 7544
Protocol: as §4, §2, §5

| SMILES | hemolysis at 1 h, 16 µg/mL [1] [%] | MIC [2] [µg/mL] | MIC, C.alb 901 [2] [µg/mL] | proportion of 14α-methylfecosterol (of total sterols) [3] [%] | proportion of eburicol (of total sterols) [3] [%] | proportion of lanosterol (of total sterols) [3] [%] | proportion of obtusifoliol (of total sterols) [3] [%] | ergosterol content of the fungal cells (of total sterols) [3] [%] | MIC [4] [µg/mL] | MIC [5] [µg/mL] | MIC [6] [µg/mL] | MIC [7] [µg/mL] | MIC, C. alb SC5314 [7] [µg/mL] | MIC, C. gla 537 [8] [µg/mL] | MIC [8] [µg/mL] | MIC [9] [µg/mL] | MIC [10] [µg/mL] | MIC [11] [µg/mL] | hemolysis at 1 h, 32 µg/mL [1] [%] | hemolysis at 1 h, 64 µg/mL [1] [%] |
| --- | --- | --- | --- | --- | --- | --- | --- | --- | --- | --- | --- | --- | --- | --- | --- | --- | --- | --- | --- | --- |
| C[C@@H](NC(=O)CCc1ccccc1)[C@](O)(Cn1cncn1)c1ccc(F)cc1F [A1] | 0.95 | 1 (≈ 2.5 µM) | 1.0 (≈ 2.5 µM) | 31.11 | 19.29 | 23.42 | 20.09 | 5.44 | 64 (≈ 160 µM) | 32 (≈ 79.9 µM) | > 64 | ≤ 0.125 | ≤ 0.125 | ≤ 0.125 | ≤ 0.125 | 0.25 (≈ 0.624 µM) | 0.5 (≈ 1.25 µM) | 64 (≈ 160 µM) | – | – |
| C[C@@H](NC(=O)CCc1ccc(C(C)(C)C)cc1)[C@](O)(Cn1cncn1)c1ccc(F)cc1F [A9] | 0.78 | 32 (≈ 70.1 µM) | – | – | – | – | – | 5.17 | > 64 | 32 (≈ 70.1 µM) | > 64 | ≤ 0.125 | ≤ 0.125 | – | ≤ 0.125 | ≤ 0.125 | 0.25 (≈ 0.548 µM) | 32 (≈ 70.1 µM) | – | – |
| CC(=O)c1ccc(CCC(=O)N[C@H](C)[C@](O)(Cn2cncn2)c2ccc(F)cc2F)cc1 [A11] | – | – | – | – | – | – | – | – | – | – | > 64 | 2 (≈ 4.52 µM) | – | – | 1 (≈ 2.26 µM) | 1 (≈ 2.26 µM) | 4 (≈ 9.04 µM) | > 64 | – | – |
| C[C@@H](NC(=O)CCc1ccc(F)c(F)c1)[C@](O)(Cn1cncn1)c1ccc(F)cc1F [A14] | – | 4 (≈ 9.17 µM) | – | – | – | – | – | – | > 64 | > 64 | 64 (≈ 147 µM) | ≤ 0.125 | – | – | ≤ 0.125 | 1 (≈ 2.29 µM) | 1 (≈ 2.29 µM) | 64 (≈ 147 µM) | – | – |
| C[C@@H](NC(=O)CCc1ccc(Cl)c(F)c1)[C@](O)(Cn1cncn1)c1ccc(F)cc1F [A15] | – | 8 (≈ 17.7 µM) | – | – | – | – | – | – | 64 (≈ 141 µM) | 64 (≈ 141 µM) | 8 (≈ 17.7 µM) | ≤ 0.125 | – | – | ≤ 0.125 | 0.5 (≈ 1.1 µM) | 0.5 (≈ 1.1 µM) | 32 (≈ 70.7 µM) | – | – |
| C[C@@H](NC(=O)CCc1ccc(Cl)c(Cl)c1)[C@](O)(Cn1cncn1)c1ccc(F)cc1F [A16] | – | 2 (≈ 4.26 µM) | – | – | – | – | – | – | > 64 | > 64 | 8 (≈ 17 µM) | ≤ 0.125 | – | – | ≤ 0.125 | ≤ 0.125 | 0.5 (≈ 1.07 µM) | 64 (≈ 136 µM) | – | – |
| C[C@@H](NC(=O)CCc1cc(F)cc(F)c1)[C@](O)(Cn1cncn1)c1ccc(F)cc1F [A17] | – | 4 (≈ 9.17 µM) | – | – | – | – | – | – | > 64 | > 64 | 16 (≈ 36.7 µM) | ≤ 0.125 | – | – | ≤ 0.125 | 0.5 (≈ 1.15 µM) | 0.5 (≈ 1.15 µM) | 32 (≈ 73.3 µM) | – | – |
| Cc1cccnc1CCC(=O)N[C@H](C)[C@](O)(Cn1cncn1)c1ccc(F)cc1F [A19] | – | – | – | – | – | – | – | – | – | – | > 64 | 1 (≈ 2.41 µM) | – | – | 1 (≈ 2.41 µM) | 2 (≈ 4.81 µM) | 2 (≈ 4.81 µM) | > 64 | – | – |
| Cc1ccnc(CCC(=O)N[C@H](C)[C@](O)(Cn2cncn2)c2ccc(F)cc2F)c1 [A20] | – | – | – | – | – | – | – | – | – | – | > 64 | 1 (≈ 2.41 µM) | – | – | 2 (≈ 4.81 µM) | 4 (≈ 9.63 µM) | 4 (≈ 9.63 µM) | > 64 | – | – |
| Cc1ccc(CCC(=O)N[C@H](C)[C@](O)(Cn2cncn2)c2ccc(F)cc2F)nc1 [A21] | – | – | – | – | – | – | – | – | – | – | > 64 | 2 (≈ 4.81 µM) | – | – | 2 (≈ 4.81 µM) | 4 (≈ 9.63 µM) | 4 (≈ 9.63 µM) | > 64 | – | – |
| Cc1ccncc1CCC(=O)N[C@H](C)[C@](O)(Cn1cncn1)c1ccc(F)cc1F [A23] | – | – | – | – | – | – | – | – | – | – | > 64 | 64 (≈ 154 µM) | – | – | 1 (≈ 2.41 µM) | 8 (≈ 19.3 µM) | 16 (≈ 38.5 µM) | > 64 | – | – |
| Cc1cncc(CCC(=O)N[C@H](C)[C@](O)(Cn2cncn2)c2ccc(F)cc2F)c1 [A24] | – | – | – | – | – | – | – | – | – | – | > 64 | 16 (≈ 38.5 µM) | – | – | 4 (≈ 9.63 µM) | 32 (≈ 77 µM) | 32 (≈ 77 µM) | > 64 | – | – |
| Cc1ccc(CCC(=O)N[C@H](C)[C@](O)(Cn2cncn2)c2ccc(F)cc2F)cn1 [A25] | – | – | – | – | – | – | – | – | – | – | > 64 | 16 (≈ 38.5 µM) | – | – | 2 (≈ 4.81 µM) | 16 (≈ 38.5 µM) | 64 (≈ 154 µM) | > 64 | – | – |
| C[C@@H]1[C@H](O)[C@@H](C)/C=C/C=C/C=C/C=C/C=C/C=C/C=C/[C@H](O[C@@H]2O[C@H](C)[C@@H](O)[C@H](N)[C@@H]2O)C[C@@H]2O[C@](O)(C[C@@H](O)C[C@@H](O)[C@H](O)CC[C@@H](O)C[C@@H](O)CC(=O)O[C@H]1C)C[C@H](O)[C@H]2C(=O)O [AmB, amphotericin B] | 4.87 | – | – | – | – | – | – | – | – | – | – | – | – | – | – | – | – | – | 57.7 | 100 |
| CC(=O)N1CCN(c2ccc(OCC3COC(Cn4ccnc4)(c4ccc(Cl)cc4Cl)O3)cc2)CC1 (stereo not drawn) [KCZ, ketoconazole, reference compound] | – | – | – | – | – | – | – | – | – | – | 16 (≈ 30.1 µM) | 4 (≈ 7.53 µM) | – | – | 1 (≈ 1.88 µM) | 0.125 (≈ 0.235 µM) | 0.5 (≈ 0.941 µM) | 4 (≈ 7.53 µM) | – | – |
